Assay results: paper PMC8333053, “Synthesis and biological screening of new thiadiazolopyrimidine-based polycyclic compounds” (Scientific Reports, 2021)
Converted amounts (≈) assume the structure as drawn.

Legend:
Type in all cases: cell-based
[1] = system: Aspergillus fumigatus 293; assay: Antifungal MIC, two-fold serial dilution; settings: Fungi, glucose minimal medium, 30°C, 48 h, visual (no turbidity)
Description: (§1) The antimicrobial activity of the synthesized thiadiazolopyrimidine compounds was studied toward diverse pathogenic strains, such as gram-positive bacteria (Staphylococcus aureus ATCC 29213 and Bacillus cereus UW85), gram-negative bacteria (Escherichia coli ATCC 12435 and Pseudomonas aeruginosa ATCC 29260), and fungi (Candida albicans and Aspergillus fumigatus 293). The assessment was performed through the two-fold dilution technique using Ampicillin (antibacterial) and Fluconazole (antifungal) as the reference drugs[28],[29]. The minimal inhibitory concentration (MICs, µg/mL) of the synthesized derivatives for prohibiting microbial growth was determined through the visual detection (no turbidity) technique.
(§2) The synthesized thiadiazolopyrimidine-based compounds were evaluated and adopted for antibacterial and antifungal effectiveness using the approved procedure[38],[39].
(§3) Minimal inhibitory concentrations (MICs) were determined by serial dilution technique using 96-multiwell microtiter plates. The investigated compounds were dissolved in DMSO 100% to prepare stock solutions of 5000 µg/mL. Two-fold serial dilutions of the dissolved compounds were performed in glucose minimal medium providing eight different concentrations (1250, 625, 312.5, 156, 78, 39, 19.5 µg/mL). The microorganisms were diluted to 1 ×10^3 SFU/mL in glucose minimal medium, and 20 µL of the diluted culture was added to the test solutions (50 µL) in the wells (one well per concentration). The plates were incubated at 30°C for 48 h. MIC was detected visually as the least concentration inhibiting fungal growth (no turbidity) and the activity of the tested compounds was estimated in comparison to fluconazole.

Candida albicans = assay: Antifungal MIC, two-fold serial dilution; settings: Fungi, glucose minimal medium, 30°C, 48 h, visual (no turbidity)
Description: as §1, §2, §3

[2] = system: Chromobacterium violaceum (ATCC 12472); assay: Antiquorum-sensing assay (violacein pigment inhibition); settings: Chromobacterium violaceum, ATCC12472, 48 h, read-out: Diameter of quorum-sensing inhibition C. violaceum
Text: The synthesized thiadiazolopyrimidine-based compounds were screened for their antiquorum-sensing (anti-QS) inhibition activity by the Chromobacterium violaceum (ATCC 12472) technique using catechin as the standard compound[28]–[30]. The QS technique of C. violaceum was remarked by the detection of violacein (violet pigment)[31],[32]. Meanwhile, the reactivity of the synthesized thiadiazolopyrimidine-containing derivatives as drugs depends on their efficiency to inhibit the liberation of violacein during the QS technique. The QS inhibition was determined by the following equation: QS inhibition (mm) = (r2 − r1), where r1 is the inhibition radius of the bacterial growth and r2 is the inhibition radius for growth as well as the release of the pigment.
The anti-QS inefficiency was evaluated using the previous technique mentioned in the literature.
The culture was prepared by growing Ch. violaceum ATCC 12472 in LB broth and incubated for 16–18 h in an orbital incubator running at 28°C and 150 rpm. The culture was then adjusted to 0.5 McFarland standard (ca. 1 × 10^6 CFU/mL). Ch. violaceum (50 µL) was inoculated into LB agar (50 mL), poured into plates, and solidified. Wells were made in LB agar medium using cork borer. The tested compounds were dissolved in DMSO 100% in Eppendorf tubes for final concentration of 5 mg/mL, and 50 µL of the test solution was applied into the wells. The positive control (catechin) was also added at the same concentration and volume to each plate. In addition, DMSO (control solvent) was added to each plate. […] Bacterial growth inhibition by the tested compounds was measured as radius (r1) in mm, while both growth and pigment inhibition was measured as radius (r2) in mm. The pigment inhibition (QS inhibition) was determined by subtracting bacterial growth inhibition (r1) from the total radius (r2); thus, QS inhibition = (r2 - r1) in mm.

Hep-2 = assay: MTT cytotoxicity assay; settings: Homo sapiens, HEp-2, 72 h, 3 days
Description: (§4) The cytotoxicity of the prepared tri-and tetra-cyclic thiadiazolopyrimidine compounds were examined toward various cancer cell lines, such as liver and breast cancer (MCF-7), prostate cancer (PC3), laryngeal carcinoma (Hep-2), carcinoma (HepG2), and standard normal fibroblast cells (WI38) using the MTT assay[33] at the National Research Centre (Egypt). The cytotoxicity (Table 3) toward 50% inhibition of the cell viability (IC50 values) was assessed using 5-fluorouracil (5-Fu) as the standard anticancer drug.
(§5) The synthesized compounds were subjected to the MTT cytotoxicity assay on the basis of the cited literature.
(§6) MTT cytotoxicity assay: The technical method of MTT assay depends on the reduction of yellow 3-(4,5-methyl-2-thiazolyl)-2,5-diphenyl-2H-tetrazolium bromide (MTT) into purple formazan product, mainly by mitochondrial reductase activity inside the living cells. The cells used in cytotoxicity assay were cultured in RPMI 1640 medium supplemented with 10% fetal calf serum. Cells suspended in the medium (2×10^4 cells/mL) were plated in 96-well culture plates and incubated at 37 °C in a 5% CO2 incubator for 12 hours. The tested sample (2 μL) was added to the cells (2×10^4) in 96-well plates and cultured at 37 °C for 3 days. The cultured cells were mixed with 20 μL of MTT solution and incubated for 4 hours at 37 °C. The supernatant was carefully removed from each well, the formazan crystals were dissolved after addition of DMSO (100 μL) for each well to form the cellular reduction of MTT. After mixing with a mechanical plate mixer, the absorbance of each well was measured by a microplate reader using a test wavelength of 570 nm. The results were expressed as the IC50 values, which inducing 50% inhibition of cell growth of the treated cells when compared to the growth of control cells.

HepG2 = assay: MTT cytotoxicity assay; settings: Homo sapiens, HepG2, 72 h, 3 days
Description: as §4, §5, §6

MCF-7 = assay: MTT cytotoxicity assay; settings: Homo sapiens, MCF7, 72 h, 3 days
Description: as §4, §5, §6

PC3 = assay: MTT cytotoxicity assay; settings: Homo sapiens, PC-3, 72 h, 3 days
Description: as §4, §5, §6

[3] = MTT cytotoxicity assay on normal cells; settings: human, WI38 normal fibroblast cells
Description: as §4, §5, §6

Row | Structure (SMILES) | MIC [1] | MIC (Candida albicans) | zone of inhibition at 5000 µg/mL [2] | IC50 (Hep-2) | IC50 (HepG2) | IC50 (MCF-7) | IC50 (PC3) | IC50 at 3 days [3]
1 | CC1=C(C#N)C2C(=C(N)O1)C(=O)N=C1SC=NN12 (stereo not drawn) [Compound 9a, 6-Amino-9-cyano-8-methyl-5-oxo-5H,9aH-pyrano[3,4-e][1,3,4]thiadiazolo[3,2-a]pyrimidine] | > 1250 µg/mL | 312 µg/mL (≈ 1.2 mM) | 11 mm | 20 ± 0.24 µM | 33.2 ± 0.36 µM | 22.7 ± 0.29 µM | 46.4 ± 1.07 µM | 36.12 ± 0.28 µM
2 | COc1ccc(N=Nc2c(O)nn3c(N)c4c(=O)nc5scnn5c4nc23)cc1 [Compound 17b, 6-Amino-9-hydroxy-10-(4-methoxyphenylazo)-5H-pyrazolo[1′,5′:1,2]pyrimido[5,4-e][1,3,4]thiadiazolo[3,2-a]pyrimidin-5-one] | 1250 µg/mL (≈ 3.05 mM) | 1250 µg/mL (≈ 3.05 mM) | 12 mm | 19 ± 0.4 µM | 33.54 ± 0.25 µM | 8.84 ± 0.17 µM | 36.8 ± 0.43 µM | 58.4 ± 2.29 µM
3 | COc1ccc(N=Nc2c(N)nn3c(N)c4c(=O)nc5scnn5c4nc23)cc1 [Compound 16b, 6,9-Diamino-10-(4-methoxyphenylazo)-5H-pyrazolo[1′,5′:1,2]pyrimido[5,4-e][1,3,4]thiadiazolo[3,2-a]pyrimidin-5-one] | > 1250 µg/mL | > 1250 µg/mL | 12 mm | 38.2 ± 0.57 µM | 42.3 ± 0.75 µM | 5.69 ± 0.39 µM | 47.9 ± 1.48 µM | 62.3 ± 3.03 µM
4 | Nc1c2c(=O)nc3scnn3c2nc2nncn12 [Compound 12, 6-Amino-5H-[1,2,4]triazolo[4′,3′:1,2]pyrimido[5,4-e][1,3,4]thiadiazolo[3,2-a]pyrimidin-5-one] | > 1250 µg/mL | > 1250 µg/mL | 3 mm | 34.1 ± 0.97 µM | 44.3 ± 1.35 µM | 36.92 ± 0.29 µM | 47.4 ± 0.89 µM | 17.7 ± 0.71 µM
5 | N#Cc1c(N)nc(N)c2c(=O)nc3scnn3c12 [Compound 6, 6,8-Diamino-9-cyano-5-oxo-5H-pyrido[3,4-e][1,3,4]thiadiazolo[3,2-a]pyrimidine] | > 1250 µg/mL | > 1250 µg/mL | < 2 mm | 57.6 ± 1.72 µM | 62.2 ± 1.07 µM | 49.6 ± 1.25 µM | 66.3 ± 2.49 µM | 14.1 ± 0.36 µM
6 | CC1=C(C(=O)c2ccccc2)C2C(=C(N)O1)C(=O)N=C1SC=NN12 (stereo not drawn) [Compound 8b, 6-Amino-9-benzoyl-8-methyl-5H,9aH-pyrano[3,4-e][1,3,4]thiadiazolo[3,2-a]pyrimidin-5-one] | 1250 µg/mL (≈ 3.67 mM) | 156 µg/mL (≈ 0.458 mM) | 12 mm | 14.7 ± 0.43 µM | 21.62 ± 0.14 µM | 14.7 ± 0.16 µM | 30.6 ± 0.57 µM | 42.8 ± 1.06 µM
7 | Nc1n[nH]c2c1c(=O)nc1scnn12 [Compound 4, 3-Aminopyrazolo[4,3-e][1,3,4]thiadiazolo[3,2-a]pyrimidin-4(1H)-one] | > 1250 µg/mL | > 1250 µg/mL | < 2 mm | 78.4 ± 2.2 µM | 15.4 ± 0.45 µM | 61.2 ± 1.11 µM | 72.3 ± 2.18 µM | 9.35 ± 0.21 µM
8 | N#CC1=C(c2ccccc2)OC(N)=C2C(=O)N=C3SC=NN3C12 (stereo not drawn) [Compound 9b, 6-Amino-9-cyano-5-oxo-8-phenyl-5H,9aH-pyrano[3,4-e][1,3,4]thiadiazolo[3,2-a]pyrimidine] | > 1250 µg/mL | 312 µg/mL (≈ 0.966 mM) | 3 mm | 11.7 ± 0.36 µM | 26.78 ± 0.18 µM | 12.8 ± 0.26 µM | 38.4 ± 0.89 µM | 48.2 ± 1.47 µM
9 | Nc1nn(-c2ccccc2)c2c1c(=O)nc1scnn12 [Compound 5, 3-Amino-1-phenylpyrazolo[4,3-e][1,3,4]thiadiazolo[3,2-a]pyrimidin-4(1H)-one] | > 1250 µg/mL | 1250 µg/mL (≈ 4.4 mM) | < 2 mm | 61.2 ± 1.51 µM | 19.2 ± 0.52 µM | 54.8 ± 1.48 µM | 61.8 ± 1.68 µM | 10.9 ± 0.83 µM
